Assays:
Format in all cases: in vivo
rice (Oryza sativa) = assay: Test C flooded paddy test: rice; conditions: scale 0 to 100 (0 no effect, 100 complete control)
Procedure, shortened: (§1)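 Visual ratings from 0 (no effect) to 100 (complete control), made against untreated controls 13 to 15 days after treatment, express plant response. Compounds went directly into paddy water over 2-leaf stage plants in pots flooded to 3 cm.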

[1] = system: sedge, umbrella (small-flower umbrella sedge, Cyperus difformis); assay: Test C flooded paddy test: sedge, umbrella; conditions: scale 0 to 100 (0 no effect, 100 complete control)
Procedure, shortened: as §1

corn (Zea mays) = assay: Test A pre-/postemergence: corn
Procedure, shortened: (§2)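 Rating scale 0–100 (100 = complete control), visual, ~10 days after application in the greenhouse. Applications: preemergence directed soil spray; postemergence at 1–2 leaves.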

[2] = system: crabgrass, large (large crabgrass, Digitaria sanguinalis); assay: Test A pre-/postemergence: crabgrass, large
Procedure, shortened: as §2

[3] = system: barnyardgrass (Echinochloa crus-galli); assay: Test A pre-/postemergence: barnyardgrass
Procedure, shortened: as §2

[4] = system: wheat (Triticum aestivum); assay: Test A pre-/postemergence: wheat
Procedure, shortened: as §2

[5] = system: velvetleaf (Abutilon theophrasti); assay: Test A pre-/postemergence: velvetleaf
Procedure, shortened: as §2

[6] = system: barnyardgrass (Echinochloa crus-galli); assay: Test C flooded paddy test: barnyardgrass; conditions: scale 0 to 100 (0 no effect, 100 complete control)
Procedure, shortened: as §1

[7] = system: ducksalad (Heteranthera limosa); assay: Test C flooded paddy test: ducksalad; conditions: scale 0 to 100 (0 no effect, 100 complete control)
Procedure, shortened: as §1

[8] = system: pigweed (Amaranthus retroflexus); assay: Test A pre-/postemergence: pigweed
Procedure, shortened: as §2

[9] = system: morningglory (Ipomoea spp.); assay: Test A pre-/postemergence: morningglory
Procedure, shortened: as §2

[10] = system: foxtail, giant (giant foxtail, Setaria faberii); assay: Test A pre-/postemergence: foxtail, giant
Procedure, shortened: as §2

[11] = Flood (flooded paddy test), 125 g ai/ha, visual rating after 13 to 15 days
[12] = Flood (flooded paddy test), 250 g ai/ha, visual rating after 13 to 15 days
[13] = Postemergence, 125 g ai/ha, 0 to 100 scale, 0 is no effect, 100 is complete control
[14] = Postemergence, 500 g ai/ha, visual rating on 0 to 100 scale (0 no effect, 100 complete control), approximately ten days
[15] = Preemergence, 125 g ai/ha, 0 to 100 scale (0 no effect, 100 complete control)
[16] = Preemergence, 500 g ai/ha, 0 to 100 scale, 0 is no effect, 100 is complete control
[17] = Preemergence, 125 g ai/ha, 0 to 100 scale where 0 is no effect and 100 is complete control
[18] = Postemergence, 1000 g ai/ha, visual rating on 0 to 100 scale (0 no effect, 100 complete control), approximately ten days
[19] = Preemergence, 1000 g ai/ha, 0 to 100 scale, 0 is no effect, 100 is complete control

SMILES: CSc1ccc(-n2nc(C)c(C(=O)c3cccc(C(F)(F)F)c3)n2)cc1 [Compound 93]
- Plant response rating, Rice (rice (Oryza sativa); [11]): 0
- Plant response rating, Rice (rice (Oryza sativa); [12]): 0
- Plant response rating, Rice (rice (Oryza sativa); Flood, 31 g ai/ha): 0
- Plant response rating, Rice (rice (Oryza sativa); Flood, 62 g ai/ha): 0
- Plant response rating, Sedge, Umbrella [1, 11]: 0
- Plant response rating, Sedge, Umbrella [1, 12]: 0
- Plant response rating, Sedge, Umbrella ([1]; Flood, 31 g ai/ha): 0
- Plant response rating, Sedge, Umbrella ([1]; Flood, 62 g ai/ha): 0
- Corn plant response rating (corn (Zea mays); [13]): 10
- Corn plant response rating (corn (Zea mays); [14]): 10
- Plant response rating, Corn (corn (Zea mays); [15]): 0
- Plant response rating, Corn (corn (Zea mays); [16]): 0
- Crabgrass, Large plant response rating [2, 13]: 10
- Crabgrass, Large plant response rating [2, 14]: 20
- Plant response rating, Crabgrass, Large [2, 15]: 0
- Plant response rating, Crabgrass, Large [2, 16]: 0
- Barnyardgrass plant response rating [3, 13]: 0
- Barnyardgrass plant response rating [3, 14]: 10
- Plant response rating, Barnyardgrass [3, 15]: 0
- Plant response rating, Barnyardgrass [3, 16]: 0
- Wheat plant response rating [4, 13]: 0
- Wheat plant response rating [4, 14]: 0
- Plant response rating, Wheat [4, 17]: 0
- Plant response rating, Wheat [4, 16]: 0
- Velvetleaf plant response rating [5, 13]: 10
- Velvetleaf plant response rating [5, 14]: 20
- Plant response rating, Velvetleaf [5, 17]: 0
- Plant response rating, Velvetleaf [5, 16]: 0
- Plant response rating, Barnyardgrass [6, 11]: 0
- Plant response rating, Barnyardgrass [6, 12]: 0
- Plant response rating, Barnyardgrass ([6]; Flood, 31 g ai/ha): 0
- Plant response rating, Barnyardgrass ([6]; Flood, 62 g ai/ha): 0
- Plant response rating, Ducksalad [7, 11]: 0
- Plant response rating, Ducksalad [7, 12]: 0
- Plant response rating, Ducksalad ([7]; Flood, 31 g ai/ha): 0
- Plant response rating, Ducksalad ([7]; Flood, 62 g ai/ha): 0
- Pigweed plant response rating [8, 13]: 10
- Pigweed plant response rating [8, 14]: 20
- Plant response rating, Pigweed [8, 17]: 0
- Plant response rating, Pigweed [8, 16]: 0
- Morningglory plant response rating [9, 13]: 0
- Morningglory plant response rating [9, 14]: 10
- Plant response rating, Morningglory [9, 17]: 0
- Plant response rating, Morningglory [9, 16]: 0
- Foxtail, Giant plant response rating [10, 13]: 10
- Foxtail, Giant plant response rating [10, 14]: 10
- Plant response rating, Foxtail, Giant [10, 17]: 0
- Plant response rating, Foxtail, Giant [10, 16]: 0

SMILES: CCc1nn(-c2ccc(C(F)(F)F)cn2)nc1Cc1cccc(C(F)(F)F)c1 [Compound 108]
- Plant response rating, Rice (rice (Oryza sativa); [11]): 15
- Plant response rating, Rice (rice (Oryza sativa); [12]): 20
- Plant response rating, Rice (rice (Oryza sativa); Flood, 31 g ai/ha): 0
- Plant response rating, Rice (rice (Oryza sativa); Flood, 62 g ai/ha): 0
- Plant response rating, Sedge, Umbrella [1, 11]: 75
- Plant response rating, Sedge, Umbrella [1, 12]: 85
- Plant response rating, Sedge, Umbrella ([1]; Flood, 31 g ai/ha): 20
- Plant response rating, Sedge, Umbrella ([1]; Flood, 62 g ai/ha): 20
- Corn plant response rating (corn (Zea mays); [13]): 20
- Corn plant response rating (corn (Zea mays); [14]): 30
- Plant response rating, Corn (corn (Zea mays); [15]): 0
- Plant response rating, Corn (corn (Zea mays); [16]): 0
- Crabgrass, Large plant response rating [2, 13]: 90
- Crabgrass, Large plant response rating [2, 14]: 90
- Plant response rating, Crabgrass, Large [2, 15]: 90
- Plant response rating, Crabgrass, Large [2, 16]: 100
- Barnyardgrass plant response rating [3, 13]: 40
- Barnyardgrass plant response rating [3, 14]: 70
- Plant response rating, Barnyardgrass [3, 15]: 30
- Plant response rating, Barnyardgrass [3, 16]: 80
- Wheat plant response rating [4, 13]: 20
- Wheat plant response rating [4, 14]: 30
- Plant response rating, Wheat [4, 17]: 0
- Plant response rating, Wheat [4, 16]: 0
- Velvetleaf plant response rating [5, 13]: 60
- Velvetleaf plant response rating [5, 14]: 80
- Plant response rating, Velvetleaf [5, 17]: 0
- Plant response rating, Velvetleaf [5, 16]: 20
- Plant response rating, Barnyardgrass [6, 11]: 20
- Plant response rating, Barnyardgrass [6, 12]: 30
- Plant response rating, Barnyardgrass ([6]; Flood, 31 g ai/ha): 0
- Plant response rating, Barnyardgrass ([6]; Flood, 62 g ai/ha): 0
- Plant response rating, Ducksalad [7, 11]: 30
- Plant response rating, Ducksalad [7, 12]: 45
- Plant response rating, Ducksalad ([7]; Flood, 31 g ai/ha): 0
- Plant response rating, Ducksalad ([7]; Flood, 62 g ai/ha): 0
- Pigweed plant response rating [8, 13]: 90
- Pigweed plant response rating [8, 14]: 100
- Plant response rating, Pigweed [8, 17]: 80
- Plant response rating, Pigweed [8, 16]: 100
- Morningglory plant response rating [9, 13]: 100
- Morningglory plant response rating [9, 14]: 100
- Plant response rating, Morningglory [9, 17]: 0
- Plant response rating, Morningglory [9, 16]: 20
- Foxtail, Giant plant response rating [10, 13]: 60
- Foxtail, Giant plant response rating [10, 14]: 90
- Plant response rating, Foxtail, Giant [10, 17]: 80
- Plant response rating, Foxtail, Giant [10, 16]: 100

SMILES: CCc1nn(-c2ccc(C(F)(F)F)cc2)nc1Cn1ccc(C(F)(F)F)n1 [Compound 118]
- Plant response rating, Rice (rice (Oryza sativa); [11]): 15
- Plant response rating, Rice (rice (Oryza sativa); [12]): 20
- Plant response rating, Rice (rice (Oryza sativa); Flood, 31 g ai/ha): 0
- Plant response rating, Rice (rice (Oryza sativa); Flood, 62 g ai/ha): 0
- Plant response rating, Sedge, Umbrella [1, 11]: 70
- Plant response rating, Sedge, Umbrella [1, 12]: 75
- Plant response rating, Sedge, Umbrella ([1]; Flood, 31 g ai/ha): 40
- Plant response rating, Sedge, Umbrella ([1]; Flood, 62 g ai/ha): 65
- Corn plant response rating (corn (Zea mays); [18]): 30
- Corn plant response rating (corn (Zea mays); [19]): 20
- Crabgrass, Large plant response rating [2, 18]: 90
- Crabgrass, Large plant response rating [2, 19]: 100
- Barnyardgrass plant response rating [3, 18]: 30
- Barnyardgrass plant response rating [3, 19]: 70
- Wheat plant response rating [4, 18]: 20
- Wheat plant response rating [4, 19]: 10
- Velvetleaf plant response rating [5, 18]: 70
- Velvetleaf plant response rating [5, 19]: 10
- Plant response rating, Barnyardgrass [6, 11]: 50
- Plant response rating, Barnyardgrass [6, 12]: 65
- Plant response rating, Barnyardgrass ([6]; Flood, 31 g ai/ha): 20
- Plant response rating, Barnyardgrass ([6]; Flood, 62 g ai/ha): 30
- Plant response rating, Ducksalad [7, 11]: 70
- Plant response rating, Ducksalad [7, 12]: 70
- Plant response rating, Ducksalad ([7]; Flood, 31 g ai/ha): 0
- Plant response rating, Ducksalad ([7]; Flood, 62 g ai/ha): 30
- Pigweed plant response rating [8, 18]: 100
- Pigweed plant response rating [8, 19]: 100
- Morningglory plant response rating [9, 18]: 100
- Morningglory plant response rating [9, 19]: 20
- Foxtail, Giant plant response rating [10, 18]: 60
- Foxtail, Giant plant response rating [10, 19]: 100
